In ChEMBL document CHEMBL1671662, “In vitro activities of telavancin and six comparator agents against anaerobic bacterial isolates” (2009):
In brackets after ≈: the same amount, converted by molar mass.

Tests used:
[1] = test system: Prevotella denticola; experiment: Antibacterial activity against Prevotella P denticola by CLSI M11-A6 agar dilution method; format: functional
[2] = test system: Clostridium bartlettii; experiment: Antibacterial activity against Clostridium bartlettii by CLSI M11-A6 agar dilution method; format: functional; conditions: Intestinibacter bartlettii
[3] = test system: Ruminococcus lactaris; experiment: Antibacterial activity against Ruminococcus lactaris by CLSI M11-A6 agar dilution method; format: functional
[4] = test system: Ruminococcus torques; experiment: Antibacterial activity against Ruminococcus torques by CLSI M11-A6 agar dilution method; format: functional; conditions: Mediterraneibacter torques
[5] = test system: Bifidobacterium breve; experiment: Antibacterial activity against Bifidobacterium breve by CLSI M11-A6 agar dilution method; format: functional
[6] = test system: Ruminococcus albus; experiment: Antibacterial activity against Ruminococcus albus by CLSI M11-A6 agar dilution method; format: functional; conditions: Hominimerdicola alba
[7] = test system: Collinsella aerofaciens; experiment: Antibacterial activity against Colinsella aerofaciens by CLSI M11-A6 agar dilution method; format: functional
[8] = test system: Coprobacillus cateniformis; experiment: Antibacterial activity against Coprobacillus cateniformis by CLSI M11-A6 agar dilution method; format: functional
[9] = test system: Streptococcus anginosus; experiment: Antibacterial activity against Streptococcus anginosus by CLSI M11-A6 agar dilution method; format: functional
[10] = test system: Clostridioides difficile; experiment: Antibacterial activity against Clostridium difficile by CLSI M11-A6 agar dilution method; format: functional
[11] = test system: Paeniclostridium sordellii; experiment: Antibacterial activity against Clostridium sordellii by CLSI M11-A6 agar dilution method; format: functional; conditions: Paraclostridium sordellii
[12] = test system: Clostridium leptum; experiment: Antibacterial activity against Clostridium leptum by CLSI M11-A6 agar dilution method; format: functional
[13] = test system: Bifidobacterium adolescentis; experiment: Antibacterial activity against Bifidobacterium adolescentis by CLSI M11-A6 agar dilution method; format: functional
[14] = test system: Fusobacterium mortiferum; experiment: Antibacterial activity against Fusobacterium mortiferum by CLSI M11-A6 agar dilution method; format: functional
[15] = test system: Phocaeicola vulgatus; experiment: Antibacterial activity against Bacteroides vulgatus by CLSI M11-A6 agar dilution method; format: functional
[16] = test system: Bifidobacterium longum; experiment: Antibacterial activity against Bifidobacterium longum by CLSI M11-A6 agar dilution method; format: functional
[17] = test system: Ruminococcus flavefaciens; experiment: Antibacterial activity against Ruminococcus flavefaciens by CLSI M11-A6 agar dilution method; format: functional
[18] = test system: Thomasclavelia ramosa; experiment: Antibacterial activity against Clostridium ramosum by CLSI M11-A6 agar dilution method; format: functional
[19] = test system: Bifidobacterium bifidum; experiment: Antibacterial activity against Bifidobacterium bifidum by CLSI M11-A6 agar dilution method; format: functional
[20] = test system: Flavonifractor plautii; experiment: Antibacterial activity against Clostridium orbiscindens by CLSI M11-A6 agar dilution method; format: functional
[21] = test system: Prevotella intermedia; experiment: Antibacterial activity against Prevotella P intermedia by CLSI M11-A6 agar dilution method; format: functional
[22] = test system: Clostridium butyricum; experiment: Antibacterial activity against Clostridium butyricum by CLSI M11-A6 agar dilution method; format: functional
[23] = test system: Clostridium paraputrificum; experiment: Antibacterial activity against Clostridium paraputrificum by CLSI M11-A6 agar dilution method; format: functional
[24] = test system: Enterocloster clostridioformis; experiment: Antibacterial activity against Clostridium clostridioforme by CLSI M11-A6 agar dilution method; format: functional
[25] = Antibacterial activity against Bifidobacterium infantis by CLSI M11-A6 agar dilution method; format: functional, Bifidobacterium longum subsp. infantis; conditions: Bifidobacterium longum
[26] = test system: Parvimonas micra; experiment: Antibacterial activity against Peptostreptococcus micros by CLSI M11-A6 agar dilution method; format: functional
[27] = test system: Ruminococcus obeum; experiment: Antibacterial activity against Ruminococcus obeum by CLSI M11-A6 agar dilution method; format: functional; conditions: Blautia obeum
[28] = test system: Bilophila wadsworthia; experiment: Antibacterial activity against Bilophila wadsworthia by CLSI M11-A6 agar dilution method; format: functional
[29] = test system: Propionibacterium propionicum; experiment: Antibacterial activity against Propionibacterium propionicus by CLSI M11-A6 agar dilution method; format: functional; conditions: Arachnia propionica
[30] = test system: Prevotella disiens; experiment: Antibacterial activity against Prevotella P disiens by CLSI M11-A6 agar dilution method; format: functional
[31] = test system: Odoribacter splanchnicus; experiment: Antibacterial activity against Bacteroides splanchnicus by CLSI M11-A6 agar dilution method; format: functional
[32] = test system: Clostridium scindens; experiment: Antibacterial activity against Clostridium scindens by CLSI M11-A6 agar dilution method; format: functional
[33] = test system: Prevotella corporis; experiment: Antibacterial activity against Prevotella corporis by CLSI M11-A6 agar dilution method; format: functional
[34] = test system: Ruminococcus sp.; experiment: Antibacterial activity against Ruminococcus sp. by CLSI M11-A6 agar dilution method; format: functional
[35] = test system: Clostridium beijerinckii; experiment: Antibacterial activity against Clostridium beijerinckii by CLSI M11-A6 agar dilution method; format: functional
[36] = test system: Anaerococcus tetradius; experiment: Antibacterial activity against Anaerococcus tetradius by CLSI M11-A6 agar dilution method; format: functional
[37] = test system: Prevotella nigrescens; experiment: Antibacterial activity against Prevotella nigrescens by CLSI M11-A6 agar dilution method; format: functional
[38] = test system: Sutterella wadsworthensis; experiment: Antibacterial activity against Sutterella wadsworthensis by CLSI M11-A6 agar dilution method; format: functional

CCC[C@@H]1C[C@@H](C(=O)N[C@@H]([C@H]2O[C@H](SC)[C@H](O)[C@@H](O)[C@H]2O)[C@H](C)Cl)N(C)C1 [CLINDAMYCIN]
MIC [1]: ≤ 0.12 µg/mL
MIC50 [1]: ≤ 0.12 µg/mL
MIC90 [1]: ≤ 0.12 µg/mL
MIC90 [2]: 4 µg/mL (≈ 9.41 µM)
MIC50 [3]: ≤ 0.12 µg/mL
MIC90 [3]: 2 µg/mL (≈ 4.71 µM)
MIC50 [4]: ≤ 0.12 µg/mL
MIC90 [4]: 2 µg/mL (≈ 4.71 µM)
MIC50 [5]: ≤ 0.12 µg/mL
MIC90 [5]: 1 µg/mL (≈ 2.35 µM)
MIC50 [6]: ≤ 0.12 µg/mL
MIC90 [6]: 2 µg/mL (≈ 4.71 µM)
MIC50 [7]: ≤ 0.12 µg/mL
MIC90 [7]: 1 µg/mL (≈ 2.35 µM)
MIC50 [8]: ≤ 0.12 µg/mL
MIC90 [8]: 1 µg/mL (≈ 2.35 µM)
MIC90 [9]: 0.5 µg/mL (≈ 1.18 µM)
MIC50 [10]: 4 µg/mL (≈ 9.41 µM)
MIC90 [10]: 128 µg/mL (≈ 301 µM)
MIC90 [11]: 4 µg/mL (≈ 9.41 µM)
MIC90 [12]: 4 µg/mL (≈ 9.41 µM)
MIC50 [13]: ≤ 0.12 µg/mL
MIC90 [13]: 1 µg/mL (≈ 2.35 µM)
MIC50 [14]: 1 µg/mL (≈ 2.35 µM)
MIC90 [14]: 32 µg/mL (≈ 75.3 µM)
MIC50 [15]: > 128 µg/mL
MIC90 [15]: > 128 µg/mL
MIC50 [16]: ≤ 0.12 µg/mL
MIC90 [16]: 1 µg/mL (≈ 2.35 µM)
MIC50 [17]: ≤ 0.12 µg/mL
MIC90 [17]: 2 µg/mL (≈ 4.71 µM)
MIC50 [18]: 4 µg/mL (≈ 9.41 µM)
MIC90 [18]: 8 µg/mL (≈ 18.8 µM)
MIC50 [19]: ≤ 0.12 µg/mL
MIC90 [19]: 1 µg/mL (≈ 2.35 µM)
MIC90 [20]: 4 µg/mL (≈ 9.41 µM)
MIC [21]: ≤ 0.12 µg/mL
MIC50 [21]: ≤ 0.12 µg/mL
MIC90 [21]: ≤ 0.12 µg/mL
MIC90 [22]: 4 µg/mL (≈ 9.41 µM)
MIC90 [23]: 4 µg/mL (≈ 9.41 µM)
MIC90 [24]: 2 µg/mL (≈ 4.71 µM)
MIC50 [25]: ≤ 0.12 µg/mL
MIC90 [25]: 1 µg/mL (≈ 2.35 µM)
MIC90 [26]: > 128 µg/mL
MIC50 [27]: ≤ 0.12 µg/mL
MIC90 [27]: ≤ 0.12 µg/mL
MIC50 [28]: 0.5 µg/mL (≈ 1.18 µM)
MIC90 [28]: 1 µg/mL (≈ 2.35 µM)
MIC50 [29]: ≤ 0.12 µg/mL
MIC90 [29]: 1 µg/mL (≈ 2.35 µM)
MIC [30]: ≤ 0.12 µg/mL
MIC50 [30]: ≤ 0.12 µg/mL
MIC90 [30]: ≤ 0.12 µg/mL
MIC50 [31]: ≤ 0.12 µg/mL
MIC90 [31]: > 128 µg/mL
MIC90 [32]: 4 µg/mL (≈ 9.41 µM)
MIC [33]: ≤ 0.12 µg/mL
MIC50 [33]: ≤ 0.12 µg/mL
MIC90 [33]: ≤ 0.12 µg/mL
MIC90 [34]: > 128 µg/mL
MIC90 [35]: 4 µg/mL (≈ 9.41 µM)
MIC90 [36]: > 128 µg/mL
MIC [37]: ≤ 0.12 µg/mL
MIC50 [37]: ≤ 0.12 µg/mL
MIC90 [37]: ≤ 0.12 µg/mL
MIC50 [38]: 16 µg/mL (≈ 37.6 µM)
MIC90 [38]: 128 µg/mL (≈ 301 µM)
